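Compound exposure: 48 hours, 5 concentrations, 96-well plates. GI50 is the concentration that inhibits growth by half.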 The source made the active and inactive calls. Cut-off read from the data, not from the text of the source: active = GI50 up to about 1.1 µM and inactive = higher. Residues, ends and D or L forms follow the SMILES beside them. *: point of attachment. Cbz = O=C(OCc1ccccc1)*; Boc = CC(C)(C)OC(=O)*; OSu = O=C1CCC(=O)N1O*; Bn = c1ccc(C*)cc1
Assays:
Test in all cases: NCI anticancer screen, dose series, 48 h
SN12C = system: SN12C
LOX IMVI = system: LOX IMVI
CAKI-1 = system: CAKI-1
EKVX = system: EKVX
SNB-19 = system: SNB-19
HCC 2998 = system: HCC 2998
HOP-62 = system: HOP-62
SR = system: SR
KM12 = system: KM12
SK-OV-3 = system: SK-OV-3
A549 = system: A549
NCI-H23 = system: NCI-H23
UACC-62 = system: UACC-62
COLO 205 = system: COLO 205
CCRF-CEM = system: CCRF-CEM
SK-MEL-28 = system: SK-MEL-28
PC-3 = system: PC-3
NCI/ADR-RES = system: NCI/ADR-RES
MCF7 = system: MCF7

Measured: GI50

C/C(CC(=O)Nc1ccc(Cl)c(Cl)c1)=N/NC(=O)C[n+]1ccccc1
inactive: SN12C > 100 µM | LOX IMVI 18.8 µM | CAKI-1 > 100 µM | EKVX > 100 µM | SNB-19 > 100 µM | HCC 2998 > 100 µM | HOP-62 > 100 µM | SR 23.7 µM | KM12 88.7 µM | SK-OV-3 > 100 µM | A549 > 100 µM | NCI-H23 > 100 µM | UACC-62 > 100 µM | COLO 205 31.8 µM | CCRF-CEM 85.3 µM | SK-MEL-28 > 100 µM

O=C(Nc1nc2ccc([N+](=O)[O-])cc2s1)C(=O)C(C1OC(=O)c2ccccc21)[N+](=O)[O-] (configuration not stated)
inactive: SN12C 75 µM | LOX IMVI > 100 µM | CAKI-1 70.1 µM | EKVX 31.5 µM | SNB-19 58.6 µM | HCC 2998 > 100 µM | HOP-62 31.9 µM | SR 54.1 µM | KM12 > 100 µM | SK-OV-3 54.3 µM | A549 > 100 µM | NCI-H23 55.2 µM | UACC-62 65.8 µM | COLO 205 > 100 µM | CCRF-CEM 63.2 µM | SK-MEL-28 > 100 µM

Cc1ccc2c(C3Cc4ccccc4N3C(=O)/C=C\C(=O)O)c(C)[nH]c2c1 (configuration not stated)
inactive: SN12C 49.8 µM | LOX IMVI 30.6 µM | CAKI-1 46.5 µM | EKVX 78.7 µM | SNB-19 40.7 µM | HCC 2998 73.8 µM | HOP-62 30.1 µM | SR 25.1 µM | KM12 35.2 µM | SK-OV-3 > 100 µM | A549 > 100 µM | NCI-H23 67.9 µM | UACC-62 29.2 µM | COLO 205 22.3 µM | CCRF-CEM 23.5 µM | SK-MEL-28 59 µM

CCOC(=O)CCC(C(=O)OCC)n1nc2ccc(Nc3c(C)[n+]([O-])c4ccc(Cl)cc4[n+]3[O-])cc2n1 (configuration not stated)
inactive: SN12C 18.9 µM | LOX IMVI 14.4 µM | CAKI-1 33.1 µM | PC-3 26.5 µM | EKVX 17.5 µM | SNB-19 30.1 µM | HCC 2998 2.93 µM | HOP-62 17 µM | SR 34.1 µM | KM12 56.8 µM | SK-OV-3 21.2 µM | A549 17.6 µM | NCI/ADR-RES 18.8 µM | NCI-H23 21.5 µM | UACC-62 26.6 µM | COLO 205 32.7 µM | CCRF-CEM 41.2 µM | MCF7 24.1 µM

CC(=O)OC1COC(N2C(=O)C(=O)c3cc(Br)c([N+](=O)[O-])cc32)C(OC(C)=O)C1OC(C)=O (configuration not stated)
inactive: SN12C > 100 µM | LOX IMVI 30.2 µM | CAKI-1 > 100 µM | EKVX 96.4 µM | SNB-19 > 100 µM | HCC 2998 > 100 µM | HOP-62 > 100 µM | SR 29.1 µM | KM12 > 100 µM | SK-OV-3 96.8 µM | A549 > 100 µM | NCI-H23 55 µM | UACC-62 49.3 µM | COLO 205 > 100 µM | CCRF-CEM 37.6 µM | SK-MEL-28 86.5 µM

COC(=O)N/N=C(/Cc1occc(=O)c1O)C(=O)Nc1ccc([N+](=O)[O-])cc1[N+](=O)[O-]
inactive: SN12C > 100 µM | LOX IMVI > 100 µM | CAKI-1 > 100 µM | EKVX > 100 µM | SNB-19 > 100 µM | HCC 2998 > 100 µM | HOP-62 > 100 µM | SR > 100 µM | KM12 > 100 µM | SK-OV-3 > 100 µM | A549 > 100 µM | NCI-H23 > 100 µM | UACC-62 > 100 µM | COLO 205 > 100 µM | CCRF-CEM > 100 µM | SK-MEL-28 > 100 µM

COc1ccc(C2ON(c3ccccc3)CC=C2C)cc1 (configuration not stated)
inactive: SN12C > 100 µM | LOX IMVI > 100 µM | CAKI-1 47.8 µM | EKVX > 100 µM | SNB-19 > 100 µM | HCC 2998 > 100 µM | HOP-62 > 100 µM | SR 37.2 µM | KM12 99.1 µM | SK-OV-3 > 100 µM | A549 62.2 µM | NCI-H23 52.7 µM | UACC-62 87.1 µM | COLO 205 99.3 µM | CCRF-CEM 33.7 µM | SK-MEL-28 61.8 µM

c1cc(-c2ccc(-c3ccsc3)s2)cs1
inactive: SN12C > 100 µM | LOX IMVI 66.7 µM | CAKI-1 45.4 µM | EKVX 85.5 µM | HCC 2998 > 100 µM | HOP-62 39.6 µM | SR 28.2 µM | KM12 > 10 µM | SK-OV-3 > 100 µM | A549 22.4 µM | NCI/ADR-RES 30.4 µM | NCI-H23 16.2 µM | UACC-62 54.2 µM | COLO 205 > 100 µM | CCRF-CEM 12.9 µM | MCF7 50.5 µM

Cc1ccc(NC(=O)CCc2nnc3s/c(=C\c4cccc([N+](=O)[O-])c4)c(=O)n23)cc1
inactive: SN12C > 100 µM | LOX IMVI 48.8 µM | CAKI-1 > 100 µM | EKVX > 100 µM | SNB-19 84.5 µM | HCC 2998 > 100 µM | HOP-62 16.7 µM | SR > 100 µM | KM12 > 100 µM | SK-OV-3 > 100 µM | A549 > 100 µM | NCI-H23 > 100 µM | UACC-62 > 100 µM | COLO 205 > 100 µM | CCRF-CEM 66.1 µM | SK-MEL-28 > 100 µM

CC(C)[Si](OCC1CC(C[C@H]2CC(C[C@H]3C[C@@H](CO[Si](C(C)C)(C(C)C)C(C)C)OC(C)(C)O3)OC(C)(C)O2)OC(C)(C)O1)(C(C)C)C(C)C (some centres not stated)
inactive: LOX IMVI > 100 µM | CAKI-1 > 100 µM | EKVX > 100 µM | SNB-19 > 100 µM | HCC 2998 > 100 µM | HOP-62 > 100 µM | SR > 100 µM | KM12 > 100 µM | SK-OV-3 > 100 µM | A549 > 100 µM | NCI-H23 > 100 µM | UACC-62 > 100 µM | COLO 205 > 100 µM | CCRF-CEM > 100 µM | SK-MEL-28 > 100 µM

CC(C)(C)OC(=O)NC(Cc1ccc(OCc2ccccc2)cc1)C(=O)NC(CCCCNC(=O)OCc1ccccc1)C(=O)NC(CCCCNC(=O)OCc1ccccc1)C(=O)ON1C(=O)CCC1=O (configuration not stated) (Boc-Tyr(Bn)-Lys(Cbz)-Lys(Cbz)-OSu; configuration not given here)
inactive: SN12C > 10 µM | CAKI-1 64.4 µM | EKVX > 100 µM | SNB-19 16.6 µM | HOP-62 > 100 µM | SR > 100 µM | KM12 46.1 µM | SK-OV-3 > 100 µM | A549 > 100 µM | NCI/ADR-RES > 100 µM | NCI-H23 28.6 µM | UACC-62 15.7 µM | COLO 205 31.1 µM | CCRF-CEM 66.2 µM | SK-MEL-28 30.6 µM | MCF7 18.9 µM
